{"source": "patent US12139475B2", "about": "“2-oxindole compounds” (CHEMOCENTRYX, INC., priority 2016, dated 2024)", "data": [{"target": "T1, CCR(9) (Homo sapiens, UniProt P51686)", "T1 construct": "MOLT-4 cells were collected by centrifugation at 400×g at room temperature, then suspended at 50 million/ml in human serum; host or cells: MOLT-4", "T1 sequence (P51686 1-369)": "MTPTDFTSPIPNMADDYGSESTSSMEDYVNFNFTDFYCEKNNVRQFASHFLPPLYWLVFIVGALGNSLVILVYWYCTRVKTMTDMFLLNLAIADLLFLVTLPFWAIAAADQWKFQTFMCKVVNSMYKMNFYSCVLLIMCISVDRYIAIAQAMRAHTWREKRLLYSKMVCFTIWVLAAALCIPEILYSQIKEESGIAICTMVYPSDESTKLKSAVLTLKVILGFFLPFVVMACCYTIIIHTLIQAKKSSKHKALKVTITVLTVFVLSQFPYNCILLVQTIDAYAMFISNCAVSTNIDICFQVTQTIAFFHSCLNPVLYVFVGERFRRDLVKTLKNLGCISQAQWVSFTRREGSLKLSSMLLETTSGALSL", "experiment": "Serum chemotaxis assay (MOLT-4 cells, TECK-induced migration, ChemoTX)", "format": "cell-based", "details": "MOLT-4 cells in human serum, migration to recombinant human TECK, 90 minutes at 37° C.", "experimental": "MOLT-4 cells were obtained from the American Type Culture Collection (Manassas, VA) and cultured in RPMI tissue culture medium supplemented with 10% fetal calf serum (FCS) in a humidified 5% CO2 incubator at 37° C. Recombinant human chemokine proteins TECK was obtained from R&D Systems (Minneapolis, MN). ChemoTX™ chemotaxis microchambers were purchased from Neuro Probe (Gaithersburg, MD). CyQUANT™ cell proliferation kits were purchased from Molecular Probes (Eugene, Oregon). Calcium indicator dye Fluo-4 AM was purchased from Molecular Devices (Mountain View, CA).\nA serum chemotaxis assay was used to determine the efficacy of potential receptor antagonists at blocking the migration mediated through chemokine receptors, such as CCR(9). This assay was performed using the ChemoTX® microchamber system with a 5-μm pore-sized polycarbonate membrane. MOLT-4 cells were collected by centrifugation at 400×g at room temperature, then suspended at 50 million/ml in human serum, containing 50 mM HEPES (final pH of 7.2). The compound being tested or an equivalent volume of its solvent (DMSO) was then added to the cell/serum mixture at a final DMSO concentration of 0.125% (v/v), and this mixture was then incubated together at 37° C. for one hour. Separately, recombinant human TECK was diluted with chemotaxis buffer (HBSS+0.1% BSA), generally spanning a range from 0.1 nM to 500 nM, after which 29 μl of diluted chemokine was placed in the lower wells of the ChemoTX® plate. The 5-μm (pore size) polycarbonate membrane was placed onto the plate, and 20 μL of the cell/compound mixture was transferred onto each well of the membrane. The plates were incubated at 37° C. for 90 minutes, after which the polycarbonate membranes were removed and 5 μl of the DNA-intercalating agent CyQUANT (Invitrogen, Carlsbad, CA) was added to the lower wells. The amount of fluorescence, corresponding to the number of migrated cells, was measured using a Spectrafluor Plus plate reader (TECAN, San Jose, CA).\nThe A2 values were calculated from the following equation, comparing the efficacy of the test compound with that of the DMSO-only control at equi-active chemokine levels: Log(A2)=log[drug(M)]−log[(A′/A)−1] where A reflects the potency of the agonist in the absence of antagonist and A′ reflects the potency of the agonist in the presence of antagonist at a given concentration of drug ([drug(M)]). In Vivo Efficacy Models for Human IBD", "values": [{"compound": "CC1(C)CCc2cc([C@]3(C)C(=O)N(c4ccc(C(=O)O)c(F)c4)c4ccc(Cl)cc43)ccc2O1", "Chemotaxis A2": "+++ (100 nM > A2)"}, {"compound": "CC1(C)CCc2cc(C3(C)C(=O)N(c4cccc(C(=O)O)c4)c4cc(Cl)c(Cl)cc43)ccc2O1", "note": "(centres unmarked)", "Chemotaxis A2": "+++ (100 nM > A2)"}, {"compound": "CC(C)(C)c1ccc(C2(C)C(=O)N(c3ccnc(C(=O)O)c3)c3ccc(Cl)cc32)cc1", "note": "(centres unmarked)", "Chemotaxis A2": "++ (500 nM > A2 ≥ 100 nM)"}, {"compound": "Cc1ccc2c(c1)N(c1cccc(C(=O)O)c1)C(=O)C2(C)c1ccc(C(C)(C)C)c(F)c1", "note": "(centres unmarked)", "Chemotaxis A2": "++ (500 nM > A2 ≥ 100 nM)"}, {"compound": "CC1(c2ccc(C(C)(O)C(F)(F)F)cc2)C(=O)N(c2cccc(C(=O)O)c2)c2ccc(Cl)cc21", "note": "(centres unmarked)", "Chemotaxis A2": "++ (500 nM > A2 ≥ 100 nM)"}, {"compound": "CC(C)(C)c1ccc(C2(C)C(=O)N(c3cccc(C(=O)O)c3)c3ccc(OC(F)(F)F)cc32)cc1", "note": "(centres unmarked)", "Chemotaxis A2": "+++ (100 nM > A2)"}, {"compound": "CC1(C)CCc2cc(C3(C)C(=O)N(c4cccc(C(=O)O)c4)c4ccc(OC(F)(F)F)cc43)ccc2O1", "note": "(centres unmarked)", "Chemotaxis A2": "+++ (100 nM > A2)"}, {"compound": "Cc1cc(CN2C(=O)[C@@](C)(c3ccc4c(c3)CCC(C)(C)O4)c3cc(Cl)ccc32)ccc1C(=O)O", "Chemotaxis A2": "+++ (100 nM > A2)"}, {"compound": "CC(C)Oc1ccc(N2C(=O)[C@@](C)(c3ccc4c(c3)CCC(C)(C)O4)c3cc(Cl)ccc32)cc1C(=O)O", "Chemotaxis A2": "+++ (100 nM > A2)"}, {"compound": "CC1(c2ccc(C3(C(F)(F)F)CC3)cc2)C(=O)N(c2cccc(C(=O)O)c2)c2ccc(Cl)cc21", "note": "(centres unmarked)", "Chemotaxis A2": "+++ (100 nM > A2)"}, {"compound": "CC1(C)CCc2cc([C@]3(C)C(=O)N(c4ccc(C(=O)O)c(Cl)c4)c4ccc(Cl)cc43)ccc2O1", "Chemotaxis A2": "+++ (100 nM > A2)"}, {"compound": "Cc1cccc(CN2C(=O)[C@@](C)(c3ccc4c(c3)CCC(C)(C)O4)c3cc(Cl)ccc32)c1C(=O)O", "Chemotaxis A2": "+++ (100 nM > A2)"}, {"compound": "CC1(C)CCc2cc([C@]3(C)C(=O)N(Cc4ccccc4C(=O)O)c4ccc(Cl)cc43)ccc2O1", "Chemotaxis A2": "+++ (100 nM > A2)"}, {"compound": "CC(C)(C)c1ccc(C2(C)C(=O)N(c3cccc(C(=O)O)c3)c3ccc(Cl)cc32)cc1", "note": "(stereo in doubt) [3-[(3R)-3-(4-tert-butylphenyl)-5-chloro-3-methyl-2-oxo-indolin-1-yl]benzoic acid]", "Chemotaxis A2": "+++ (100 nM > A2)"}, {"compound": "CC(C)(F)c1ccc(C2(C)C(=O)N(c3cccc(C(=O)O)c3)c3ccc(Cl)cc32)cc1", "note": "(centres unmarked)", "Chemotaxis A2": "++ (500 nM > A2 ≥ 100 nM)"}, {"compound": "Cc1cc(C(C)(C)C)ccc1C1(C)C(=O)N(c2cccc(C(=O)O)c2)c2ccc(Cl)cc21", "note": "(centres unmarked)", "Chemotaxis A2": "+++ (100 nM > A2)"}, {"compound": "Cc1ccc(C(=O)O)c(CN2C(=O)[C@@](C)(c3ccc4c(c3)CCC(C)(C)O4)c3cc(Cl)ccc32)c1", "Chemotaxis A2": "+++ (100 nM > A2)"}, {"compound": "Cc1ccc2c(c1)C(C)(c1ccc(C(C)(C)C)c(F)c1)C(=O)N2c1cccc(C(=O)O)c1", "note": "(centres unmarked)", "Chemotaxis A2": "+++ (100 nM > A2)"}, {"compound": "CC(C)(C)c1ccc(C2(C)C(=O)N(c3cccc(C(=O)O)c3F)c3ccc(Cl)cc32)cc1", "note": "(centres unmarked)", "Chemotaxis A2": "+++ (100 nM > A2)"}, {"compound": "Cc1cc(N2C(=O)[C@@](C)(c3ccc4c(c3)CCC(C)(C)O4)c3cc(Cl)ccc32)ccc1C(=O)O", "Chemotaxis A2": "+++ (100 nM > A2)"}, {"compound": "Cc1ccc(N2C(=O)[C@@](C)(c3ccc(C(C)(C)C)cc3)c3cc(Cl)ccc32)cc1C(=O)O", "Chemotaxis A2": "+++ (100 nM > A2)"}, {"compound": "COc1cc(N2C(=O)[C@@](C)(c3ccc4c(c3)CCC(C)(C)O4)c3cc(Cl)ccc32)ccc1C(=O)O", "Chemotaxis A2": "+++ (100 nM > A2)"}, {"compound": "Cc1ccc2c(c1)C(C)(c1ccc(C(C)(C)C)cc1)C(=O)N2c1ccc(C(=O)O)cc1", "note": "(centres unmarked)", "Chemotaxis A2": "++ (500 nM > A2 ≥ 100 nM)"}, {"compound": "CC1(C)CCc2cc([C@]3(C)C(=O)N(c4ccc(CCCC(=O)O)cc4)c4ccc(Cl)cc43)ccc2O1", "Chemotaxis A2": "+++ (100 nM > A2)"}, {"compound": "CC1(c2ccc(C(C)(C)C(C)(F)F)cc2)C(=O)N(c2cccc(C(=O)O)c2)c2ccc(Cl)cc21", "note": "(centres unmarked)", "Chemotaxis A2": "+ (20000 nM ≥ A2 ≥ 500 nM)"}, {"compound": "CC(C)(C)c1ccc(C2(C)C(=O)N(c3cccc(C(=O)O)c3)c3cc(Cl)ccc32)cc1F", "note": "(centres unmarked)", "Chemotaxis A2": "+ (20000 nM ≥ A2 ≥ 500 nM)"}, {"compound": "CC1(C)CCc2cc([C@]3(C)C(=O)N(c4cc(Cl)cc(C(=O)O)c4)c4ccc(Cl)cc43)ccc2O1", "Chemotaxis A2": "+++ (100 nM > A2)"}, {"compound": "Cc1ccc(CN2C(=O)[C@@](C)(c3ccc4c(c3)CCC(C)(C)O4)c3cc(Cl)ccc32)cc1C(=O)O", "Chemotaxis A2": "+++ (100 nM > A2)"}, {"compound": "CC(C(=O)O)c1cccc(N2C(=O)[C@@](C)(c3ccc4c(c3)CCC(C)(C)O4)c3cc(Cl)ccc32)c1", "note": "(some centres unmarked)", "Chemotaxis A2": "+++ (100 nM > A2)"}, {"compound": "CC(C)(C)c1ccc([C@]2(C)C(=O)N(c3ccc(F)c(C(=O)O)c3)c3ccc(Cl)cc32)cc1", "Chemotaxis A2": "+++ (100 nM > A2)"}, {"compound": "Cc1cc(C(C)(C)C)ccc1C1(C)C(=O)N(c2ccc(C(=O)O)cc2)c2ccc(Cl)cc21", "note": "(centres unmarked)", "Chemotaxis A2": "++ (500 nM > A2 ≥ 100 nM)"}, {"compound": "CC1(C)CCc2cc([C@]3(C)C(=O)N(c4ccc(OC(F)(F)F)c(C(=O)O)c4)c4ccc(Cl)cc43)ccc2O1", "Chemotaxis A2": "+++ (100 nM > A2)"}, {"compound": "CC1(C)CCc2cc([C@]3(C)C(=O)N(Cc4cc(Cl)ccc4C(=O)O)c4ccc(Cl)cc43)ccc2O1", "Chemotaxis A2": "+++ (100 nM > A2)"}, {"compound": "CC1(C)CCc2cc([C@]3(C)C(=O)N(c4ccc(Cl)c(C(=O)O)c4)c4ccc(Cl)cc43)ccc2O1", "Chemotaxis A2": "+++ (100 nM > A2)"}, {"compound": "CC1(c2ccc(Cl)cc2)C(=O)N(c2cccc(C(=O)O)c2)c2ccc(Cl)cc21", "note": "(centres unmarked)", "Chemotaxis A2": "+ (20000 nM ≥ A2 ≥ 500 nM)"}, {"compound": "Cc1cc(C2(C)C(=O)N(c3cccc(C(=O)O)c3)c3ccc(Cl)cc32)ccc1OC(C)C", "note": "(centres unmarked)", "Chemotaxis A2": "++ (500 nM > A2 ≥ 100 nM)"}, {"compound": "Cc1ccc(N2C(=O)[C@@](C)(c3ccc4c(c3)CCC(C)(C)O4)c3cc(Cl)ccc32)cc1C(=O)O", "Chemotaxis A2": "+++ (100 nM > A2)"}, {"compound": "COc1ccc(CN2C(=O)[C@@](C)(c3ccc4c(c3)CCC(C)(C)O4)c3cc(Cl)ccc32)c(C(=O)O)c1", "Chemotaxis A2": "+++ (100 nM > A2)"}, {"compound": "COc1ccc(N2C(=O)C(C)(c3ccc4c(c3)CCC(C)(C)O4)c3cc(Cl)ccc32)cc1C(=O)O", "note": "(stereo in doubt) [5-[(3R)-5-chloro-3-(2,2-dimethylchroman-6-yl)-3-methyl-2-oxo-indolin-1-yl]-2-methoxy-benzoic acid]", "Chemotaxis A2": "+++ (100 nM > A2)"}, {"compound": "COc1cc(C(=O)O)cc(N2C(=O)[C@@](C)(c3ccc4c(c3)CCC(C)(C)O4)c3cc(Cl)ccc32)c1", "Chemotaxis A2": "+++ (100 nM > A2)"}, {"compound": "CC1(C)CCc2cc([C@]3(C)C(=O)N(c4ccc(Cn5nn[nH]c5=O)cc4)c4ccc(Cl)cc43)ccc2O1", "note": "[(S)-5-chloro-3-(2,2-dimethylchroman-6-yl)-3-methyl-1-(4-((5-oxo-4,5-dihydro-1H-tetrazol-1-yl)methyl)phenyl)indolin-2-one]", "Chemotaxis A2": "+++ (100 nM > A2)"}, {"compound": "CC1(C)CCc2cc([C@]3(C)C(=O)N(c4ccccc4CC(=O)O)c4ccc(Cl)cc43)ccc2O1", "Chemotaxis A2": "+++ (100 nM > A2)"}, {"compound": "Cc1ccc2c(c1)[C@](C)(c1ccc3c(c1)CCC(C)(C)O3)C(=O)N2c1ccc(C(=O)O)cc1", "Chemotaxis A2": "+++ (100 nM > A2)"}, {"compound": "CC(C)COc1ccc(N2C(=O)[C@@](C)(c3ccc4c(c3)CCC(C)(C)O4)c3cc(Cl)ccc32)cc1C(=O)O", "Chemotaxis A2": "+++ (100 nM > A2)"}, {"compound": "CC1(C)CCc2cc(C3(C)C(=O)N(c4cccc(C(=O)O)c4)c4cc(Cl)c(OC(F)(F)F)cc43)ccc2O1", "note": "(centres unmarked)", "Chemotaxis A2": "+++ (100 nM > A2)"}, {"compound": "Cc1cccc(C(=O)O)c1CN1C(=O)[C@@](C)(c2ccc3c(c2)CCC(C)(C)O3)c2cc(Cl)ccc21", "Chemotaxis A2": "+++ (100 nM > A2)"}, {"compound": "CC1(C)CCc2cc([C@]3(C)C(=O)N(c4cccc(OCC(=O)O)c4)c4ccc(Cl)cc43)ccc2O1", "Chemotaxis A2": "+++ (100 nM > A2)"}]}]}
